Measurements: patent publication US20230069886A1, “AROMATIC SULPHONAMIDES DERIVATIVES THAT INHIBITS PDI A3, THEIR SYNTHESIS AND USE” (Uniwersytet Jagiellonski, priority 2020, published 2023)

Tests used:
MCF-7 = assay: MTT antiproliferative assay, 48 h, MCF-7; type: cell-based, human; conditions: 48-hour exposition, read-out: Cytotoxicity, IC50, μM MCF-7
Protocol: (§1) Anticancer activity of compounds of invention, PDI A3-inhibitors has been tested in vitro in classical antiproliferative assay in various cancer cells lines. Monolayer tumor cell lines MDA-MB-231 (human mammary breast adenocarcinoma), MCF-7 (human breast adenocarcinoma, estrogen-positive), HT-1080 (human fibrosarcoma) and Caco-2 (human colon adenocarcinoma) were cultured in standard medium DMEM (Dulbecco's modified Eagle's medium) (“Sigma”) supplemented with 10% foetal bovine serum (“Sigma”). About 2000-4000 cells per well (depending on line nature) were placed in 96-well plates and after 24 h compounds were added to the wells. Untreated cells were used as a control. The plates were incubated for 48 h, 37° C., 5% CO2. The number of surviving cells was determined using 3-(4,5-dimethylthiazol-2-yl)-2,5-diphenyltetrazolinium bromide (MTT). MTT-test: after incubating culture medium was removed and 200 μL fresh medium with 20 μL MTT (2 mg/mL in HBSS) was added in each well of the plate. After incubation (3 hr., 37° C., 5% CO2), the medium with MTT was removed and 200 μL DMSO were added at once to each sample. The samples were tested at 540 nm on Thermo Scientific Multiskan EX microplate photometer. The half-maximal inhibitory concentration (IC50) of each compound was calculated using Graph Pad Prism® 3.0.

PDI A3 = biological target: T1, PDI A3 (Homo sapiens, UniProt P30101); assay: PDI A3 inhibition, insulin turbidimetric assay; type: biochemical; conditions: 10 ug/ml PDI A3, incubated 60 min at 37° C., turbidity at 650 nm; read-out: Inhibition of PDI A3 (EC 50)
T1 construct: purchased Mybiosource; host or cells: E. coli
T1 sequence (P30101 25-505): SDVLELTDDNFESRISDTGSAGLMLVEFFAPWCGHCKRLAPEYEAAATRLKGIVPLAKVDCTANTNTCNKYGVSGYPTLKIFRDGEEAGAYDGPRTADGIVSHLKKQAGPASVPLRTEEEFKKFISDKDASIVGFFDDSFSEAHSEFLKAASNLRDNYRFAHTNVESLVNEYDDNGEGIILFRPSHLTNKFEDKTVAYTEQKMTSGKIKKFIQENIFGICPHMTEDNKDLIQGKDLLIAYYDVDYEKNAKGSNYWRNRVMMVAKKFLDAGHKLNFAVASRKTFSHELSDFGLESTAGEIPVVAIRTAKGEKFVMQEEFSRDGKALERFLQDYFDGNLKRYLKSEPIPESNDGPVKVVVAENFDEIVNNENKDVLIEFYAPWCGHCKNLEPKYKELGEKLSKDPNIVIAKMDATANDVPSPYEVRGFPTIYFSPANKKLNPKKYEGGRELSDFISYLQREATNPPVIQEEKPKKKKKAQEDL
Protocol: The inhibitory effects compounds of invention on activity of PDIA3 was assess based on the insulin turbidimetric assay. Enzymatic activity of PDIA3 was confirmed by measuring the turbidity increase at 650 nm due to insulin reduction. The assay mixture was prepared by addition 10 ug/ml PDI A3 (E. coli recombinant protein; Mybiosource), […] phosphate buffer (pH7.6), 1 mM EDTA, 0.087 mM DTT and with or without tested compound and was incubated for 60 min, at 37° C. Reaction was started by addition of insulin and DTT. Final concentration of insulin and DTT in assay mixture were 0.15 mMv and 0.174 mMv, respectively. Turbidity was detected at 650 nm against reference samples without PDJs. The measurements were performed at 650 nm using 120-s recordings.

MDA-MB-231 = assay: MTT antiproliferative assay, 48 h, MDA-MB-231; type: cell-based, human; conditions: 48-hour exposition, read-out: Cytotoxicity, IC50, μM MDA-MB-231
Protocol: as §1

CaCo-2 = assay: MTT antiproliferative assay, 48 h, Caco-2; type: cell-based, human; conditions: 48-hour exposition, read-out: Cytotoxicity, IC50, μM CaCo-2
Protocol: as §1

HT-1080 = assay: MTT antiproliferative assay, 48 h, HT-1080; type: cell-based, human; conditions: 48-hour exposition, read-out: Cytotoxicity, IC50, μM HT-1080
Protocol: as §1

EC50 (PDI A3): 190 µM
Substance: Methyl 1-(4-propylphenyl)sulfonylaziridine-2-carboxylate [Compound C-3304]
IC50 (MCF-7): 49 ± 1 µM
IC50 (MDA-MB-231): 13 ± 1 µM
IC50 (CaCo-2): 10 ± 1 µM
IC50 (HT-1080): 17 ± 3 µM
